Results from ChEMBL document CHEMBL4507273 (2021).

Legend:
[1] = target: Serine/threonine-protein kinase D2 (Homo sapiens) (UniProt Q9BZL6); settings: Compound concentration 1000.0 nM
[2] = tested on: Hepatocyte growth factor receptor (Homo sapiens), P08581 [M1250T]; settings: Compound concentration 1000.0 nM
D(3) dopamine receptor = D(3) dopamine receptor (Homo sapiens, UniProt P35462); settings: Compound concentration 10.0 uM
[3] = target: Tyrosine-protein kinase Yes (Homo sapiens) (UniProt P07947); settings: Compound concentration 1000.0 nM
[4] = target: Calcium/calmodulin-dependent protein kinase kinase 1 (Homo sapiens) (UniProt Q8N5S9); settings: Compound concentration 1000.0 nM
[5] = target: Testis-specific serine/threonine-protein kinase 3 (Homo sapiens) (UniProt Q96PN8); settings: Compound concentration 1000.0 nM
[6] = target: Ribosomal protein S6 kinase alpha-4 (Homo sapiens) (UniProt O75676); settings: Compound concentration 1000.0 nM
[7] = target: Serine/threonine-protein kinase WNK3 (Homo sapiens) (UniProt Q9BYP7); settings: Compound concentration 1000.0 nM
[8] = target: Mitogen-activated protein kinase kinase kinase 20 (Homo sapiens) (UniProt Q9NYL2); settings: Compound concentration 1000.0 nM
[9] = target: Serine/threonine-protein kinase 35 (Homo sapiens) (UniProt Q8TDR2); settings: Compound concentration 1000.0 nM
[10] = target: T1, Alpha-2C adrenergic receptor (Homo sapiens, UniProt P18825); test: GPCRScan assay: inhibition of Alpha2C; design: radioligand conc. used [nm] 0.5 – 1.0, parental cells stable MDCK
T1 sequence (P18825 whole entry): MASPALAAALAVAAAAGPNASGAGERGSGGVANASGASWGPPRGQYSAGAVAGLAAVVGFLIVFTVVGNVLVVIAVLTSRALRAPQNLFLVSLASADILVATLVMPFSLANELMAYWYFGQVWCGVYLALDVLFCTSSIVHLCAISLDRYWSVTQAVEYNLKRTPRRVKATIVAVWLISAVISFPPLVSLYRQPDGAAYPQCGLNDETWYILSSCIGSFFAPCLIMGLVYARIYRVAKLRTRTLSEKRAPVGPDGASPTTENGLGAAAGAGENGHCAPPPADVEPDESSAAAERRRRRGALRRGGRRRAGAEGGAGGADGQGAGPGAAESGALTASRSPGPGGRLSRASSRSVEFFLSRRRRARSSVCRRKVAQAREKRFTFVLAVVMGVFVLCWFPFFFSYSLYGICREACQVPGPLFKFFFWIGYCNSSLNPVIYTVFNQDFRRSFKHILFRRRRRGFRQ

[11] = tested on: Epidermal growth factor receptor (Homo sapiens), P00533 [UNDEFINED MUTATION]; settings: Compound concentration 1000.0 nM
[12] = target: Death-associated protein kinase 1 (Homo sapiens) (UniProt P53355); settings: Compound concentration 1000.0 nM
[13] = target: Macrophage colony-stimulating factor 1 receptor (Homo sapiens) (UniProt P07333); settings: Compound concentration 1000.0 nM
[14] = target: Tyrosine-protein kinase ABL2 (Homo sapiens) (UniProt P42684); settings: Compound concentration 1000.0 nM
[15] = target: Serine/threonine-protein kinase RIO2 (Homo sapiens) (UniProt Q9BVS4); settings: Compound concentration 1000.0 nM
[16] = target: Sodium-dependent dopamine transporter (Homo sapiens, UniProt Q01959); test: GPCRScan assay: inhibition of DAT; design: radioligand conc. used [nm] 3.6 – 16.0, parental cells stable HEK
[17] = target: Beta-2 adrenergic receptor (Homo sapiens) (UniProt P07550); settings: Compound concentration 10.0 uM
[18] = target: Epidermal growth factor receptor (Homo sapiens, UniProt P00533); test: EGFR kinase inhibition assay
[19] = target: Ephrin type-B receptor 1 (Homo sapiens) (UniProt P54762); settings: Compound concentration 1000.0 nM
[20] = target: Peripheral plasma membrane protein CASK (Homo sapiens) (UniProt O14936); settings: Compound concentration 1000.0 nM
[21] = target: Tyrosine-protein kinase Blk (Homo sapiens) (UniProt P51451); settings: Compound concentration 1000.0 nM
[22] = target: T2, 5-hydroxytryptamine receptor 2C (Homo sapiens) (UniProt P28335); settings: Compound concentration 10.0 uM
T2 sequence (whole entry): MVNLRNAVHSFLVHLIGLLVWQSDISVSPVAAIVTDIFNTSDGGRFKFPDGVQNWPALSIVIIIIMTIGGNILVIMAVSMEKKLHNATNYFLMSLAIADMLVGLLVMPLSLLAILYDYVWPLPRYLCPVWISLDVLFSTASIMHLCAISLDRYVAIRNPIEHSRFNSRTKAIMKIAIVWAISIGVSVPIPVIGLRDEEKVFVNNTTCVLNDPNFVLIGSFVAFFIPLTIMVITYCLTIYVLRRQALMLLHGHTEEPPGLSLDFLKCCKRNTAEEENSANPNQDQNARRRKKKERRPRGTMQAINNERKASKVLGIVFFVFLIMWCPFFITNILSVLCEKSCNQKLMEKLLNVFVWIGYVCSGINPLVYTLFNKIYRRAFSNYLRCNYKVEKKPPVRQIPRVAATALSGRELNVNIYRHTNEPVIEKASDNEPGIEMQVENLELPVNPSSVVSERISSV

[23] = tested on: Tyrosine-protein kinase ABL1 (Homo sapiens), P00519 [Y253F]; settings: Compound concentration 1000.0 nM
[24] = target: Tyrosine-protein kinase receptor TYRO3 (Homo sapiens) (UniProt Q06418); settings: Compound concentration 1000.0 nM
[25] = tested on: Proto-oncogene tyrosine-protein kinase receptor Ret (Homo sapiens), P07949 [M918T]; settings: Compound concentration 1000.0 nM
[26] = target: Dual specificity protein kinase CLK1 (Homo sapiens) (UniProt P49759); settings: Compound concentration 1000.0 nM
[27] = target: RAC-beta serine/threonine-protein kinase (Homo sapiens) (UniProt P31751); settings: Compound concentration 1000.0 nM
[28] = target: Serine/threonine-protein kinase Chk1 (Homo sapiens) (UniProt O14757); settings: Compound concentration 1000.0 nM
[29] = target: Serine/threonine-protein kinase MARK2 (Homo sapiens) (UniProt Q7KZI7); settings: Compound concentration 1000.0 nM
[30] = target: 3-phosphoinositide-dependent protein kinase 1 (Homo sapiens) (UniProt O15530); settings: Compound concentration 1000.0 nM
[31] = target: Myosin light chain kinase family member 4 (Homo sapiens) (UniProt Q86YV6); settings: Compound concentration 1000.0 nM
[32] = target: Serine/threonine-protein kinase NIM1 (Homo sapiens) (UniProt Q8IY84); settings: Compound concentration 1000.0 nM

Chain of Sodium-dependent dopamine transporter (Q01959 whole entry): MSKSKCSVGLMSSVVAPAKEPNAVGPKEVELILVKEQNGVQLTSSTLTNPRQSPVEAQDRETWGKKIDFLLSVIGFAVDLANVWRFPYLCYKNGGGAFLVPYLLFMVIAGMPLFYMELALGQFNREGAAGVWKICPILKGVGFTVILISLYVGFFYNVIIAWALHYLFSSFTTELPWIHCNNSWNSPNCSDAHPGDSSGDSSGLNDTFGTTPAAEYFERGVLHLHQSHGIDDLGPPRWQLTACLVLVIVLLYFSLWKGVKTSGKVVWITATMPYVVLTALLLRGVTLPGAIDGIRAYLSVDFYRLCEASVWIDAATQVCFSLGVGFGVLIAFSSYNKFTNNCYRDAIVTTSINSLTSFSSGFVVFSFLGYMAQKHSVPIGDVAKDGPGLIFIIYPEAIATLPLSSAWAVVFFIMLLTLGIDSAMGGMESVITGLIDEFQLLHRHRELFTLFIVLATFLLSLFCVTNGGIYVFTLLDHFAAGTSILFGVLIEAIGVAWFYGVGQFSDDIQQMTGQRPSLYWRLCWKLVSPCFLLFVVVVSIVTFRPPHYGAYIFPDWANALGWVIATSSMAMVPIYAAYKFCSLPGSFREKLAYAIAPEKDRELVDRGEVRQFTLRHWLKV
Chain of Serine/threonine-protein kinase Chk1 (Homo sapiens) (O14757 whole entry): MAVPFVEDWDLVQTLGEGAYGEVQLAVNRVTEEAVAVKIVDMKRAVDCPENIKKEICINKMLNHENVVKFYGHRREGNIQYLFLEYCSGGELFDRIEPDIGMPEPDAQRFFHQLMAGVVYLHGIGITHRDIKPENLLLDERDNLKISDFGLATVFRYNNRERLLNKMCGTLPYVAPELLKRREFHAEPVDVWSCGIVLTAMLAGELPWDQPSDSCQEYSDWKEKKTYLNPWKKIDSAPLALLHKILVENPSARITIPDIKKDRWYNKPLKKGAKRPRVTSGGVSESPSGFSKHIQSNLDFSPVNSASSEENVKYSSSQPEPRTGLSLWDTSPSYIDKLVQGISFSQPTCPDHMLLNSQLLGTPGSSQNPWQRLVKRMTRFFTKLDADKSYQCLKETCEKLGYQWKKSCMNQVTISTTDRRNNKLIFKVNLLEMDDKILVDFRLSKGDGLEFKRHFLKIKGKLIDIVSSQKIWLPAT
Chain of Tyrosine-protein kinase ABL2 (Homo sapiens) (P42684 whole entry): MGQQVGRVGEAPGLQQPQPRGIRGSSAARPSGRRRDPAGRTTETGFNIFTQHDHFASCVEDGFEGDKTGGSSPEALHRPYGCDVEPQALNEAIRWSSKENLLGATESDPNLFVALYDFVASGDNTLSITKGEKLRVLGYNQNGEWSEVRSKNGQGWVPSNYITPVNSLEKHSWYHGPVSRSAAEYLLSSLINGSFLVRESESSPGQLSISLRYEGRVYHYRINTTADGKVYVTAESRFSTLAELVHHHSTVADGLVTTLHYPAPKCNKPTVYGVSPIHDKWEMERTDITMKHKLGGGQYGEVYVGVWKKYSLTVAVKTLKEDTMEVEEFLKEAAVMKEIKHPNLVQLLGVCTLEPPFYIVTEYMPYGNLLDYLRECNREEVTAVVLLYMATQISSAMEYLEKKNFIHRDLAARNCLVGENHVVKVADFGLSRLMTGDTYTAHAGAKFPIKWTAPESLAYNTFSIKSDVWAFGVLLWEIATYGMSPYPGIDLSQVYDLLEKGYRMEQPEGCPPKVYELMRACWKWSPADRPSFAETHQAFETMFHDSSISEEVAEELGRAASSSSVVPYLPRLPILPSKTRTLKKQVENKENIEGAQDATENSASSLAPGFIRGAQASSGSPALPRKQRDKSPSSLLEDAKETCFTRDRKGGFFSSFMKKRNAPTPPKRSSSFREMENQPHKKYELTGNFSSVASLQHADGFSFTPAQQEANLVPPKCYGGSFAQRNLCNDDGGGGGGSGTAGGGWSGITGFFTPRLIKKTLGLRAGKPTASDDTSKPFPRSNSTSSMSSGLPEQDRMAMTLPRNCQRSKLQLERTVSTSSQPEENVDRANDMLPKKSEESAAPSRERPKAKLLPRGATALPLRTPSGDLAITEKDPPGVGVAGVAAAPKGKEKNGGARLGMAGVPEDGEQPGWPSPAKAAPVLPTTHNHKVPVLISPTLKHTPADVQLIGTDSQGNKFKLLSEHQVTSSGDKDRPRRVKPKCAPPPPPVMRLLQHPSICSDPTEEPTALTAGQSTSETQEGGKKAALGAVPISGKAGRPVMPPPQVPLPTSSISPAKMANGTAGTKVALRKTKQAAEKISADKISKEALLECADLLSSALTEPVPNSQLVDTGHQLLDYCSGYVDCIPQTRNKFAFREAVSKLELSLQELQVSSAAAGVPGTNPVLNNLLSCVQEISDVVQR
Chain of Tyrosine-protein kinase Blk (Homo sapiens) (P51451 2-505 limits assumed): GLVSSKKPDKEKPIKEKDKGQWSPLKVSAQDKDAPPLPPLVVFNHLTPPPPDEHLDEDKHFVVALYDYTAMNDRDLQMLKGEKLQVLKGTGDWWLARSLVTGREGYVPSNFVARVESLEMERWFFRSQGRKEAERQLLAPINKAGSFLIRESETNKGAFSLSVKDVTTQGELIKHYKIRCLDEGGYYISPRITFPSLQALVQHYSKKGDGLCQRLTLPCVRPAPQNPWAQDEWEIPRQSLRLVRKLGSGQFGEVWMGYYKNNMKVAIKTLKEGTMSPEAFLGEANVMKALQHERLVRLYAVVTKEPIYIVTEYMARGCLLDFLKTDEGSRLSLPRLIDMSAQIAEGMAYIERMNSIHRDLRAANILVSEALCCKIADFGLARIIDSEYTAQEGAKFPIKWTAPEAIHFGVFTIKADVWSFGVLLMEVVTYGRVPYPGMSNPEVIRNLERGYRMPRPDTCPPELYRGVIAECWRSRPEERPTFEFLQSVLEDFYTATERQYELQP
Chain of RAC-beta serine/threonine-protein kinase (Homo sapiens) (P31751 whole entry): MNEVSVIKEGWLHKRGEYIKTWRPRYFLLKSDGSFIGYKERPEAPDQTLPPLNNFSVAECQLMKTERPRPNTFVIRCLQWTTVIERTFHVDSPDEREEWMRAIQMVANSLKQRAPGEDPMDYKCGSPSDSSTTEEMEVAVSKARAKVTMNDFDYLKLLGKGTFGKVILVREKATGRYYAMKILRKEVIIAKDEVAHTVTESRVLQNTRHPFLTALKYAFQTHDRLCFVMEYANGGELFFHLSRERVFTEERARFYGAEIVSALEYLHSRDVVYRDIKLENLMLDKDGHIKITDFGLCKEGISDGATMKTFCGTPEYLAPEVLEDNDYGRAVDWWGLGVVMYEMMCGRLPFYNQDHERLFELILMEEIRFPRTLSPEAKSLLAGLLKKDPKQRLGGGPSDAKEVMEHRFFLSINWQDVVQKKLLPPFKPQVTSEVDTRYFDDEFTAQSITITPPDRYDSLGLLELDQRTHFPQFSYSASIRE
Chain of 3-phosphoinositide-dependent protein kinase 1 (Homo sapiens) (O15530 whole entry): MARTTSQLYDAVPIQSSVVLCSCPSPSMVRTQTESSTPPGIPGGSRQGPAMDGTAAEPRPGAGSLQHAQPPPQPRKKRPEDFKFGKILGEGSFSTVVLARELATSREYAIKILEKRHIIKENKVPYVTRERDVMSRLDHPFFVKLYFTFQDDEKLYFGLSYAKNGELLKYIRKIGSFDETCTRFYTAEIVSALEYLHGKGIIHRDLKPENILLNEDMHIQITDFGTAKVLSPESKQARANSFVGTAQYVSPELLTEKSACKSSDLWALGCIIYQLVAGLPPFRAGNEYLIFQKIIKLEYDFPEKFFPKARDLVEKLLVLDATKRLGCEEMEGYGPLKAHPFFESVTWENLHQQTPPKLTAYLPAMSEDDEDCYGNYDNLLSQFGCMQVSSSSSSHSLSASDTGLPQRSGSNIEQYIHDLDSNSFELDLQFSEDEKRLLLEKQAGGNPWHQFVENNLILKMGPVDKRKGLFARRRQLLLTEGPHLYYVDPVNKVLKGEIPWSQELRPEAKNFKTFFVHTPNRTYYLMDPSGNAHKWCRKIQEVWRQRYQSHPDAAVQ
Chain of Serine/threonine-protein kinase D2 (Homo sapiens) (Q9BZL6 whole entry): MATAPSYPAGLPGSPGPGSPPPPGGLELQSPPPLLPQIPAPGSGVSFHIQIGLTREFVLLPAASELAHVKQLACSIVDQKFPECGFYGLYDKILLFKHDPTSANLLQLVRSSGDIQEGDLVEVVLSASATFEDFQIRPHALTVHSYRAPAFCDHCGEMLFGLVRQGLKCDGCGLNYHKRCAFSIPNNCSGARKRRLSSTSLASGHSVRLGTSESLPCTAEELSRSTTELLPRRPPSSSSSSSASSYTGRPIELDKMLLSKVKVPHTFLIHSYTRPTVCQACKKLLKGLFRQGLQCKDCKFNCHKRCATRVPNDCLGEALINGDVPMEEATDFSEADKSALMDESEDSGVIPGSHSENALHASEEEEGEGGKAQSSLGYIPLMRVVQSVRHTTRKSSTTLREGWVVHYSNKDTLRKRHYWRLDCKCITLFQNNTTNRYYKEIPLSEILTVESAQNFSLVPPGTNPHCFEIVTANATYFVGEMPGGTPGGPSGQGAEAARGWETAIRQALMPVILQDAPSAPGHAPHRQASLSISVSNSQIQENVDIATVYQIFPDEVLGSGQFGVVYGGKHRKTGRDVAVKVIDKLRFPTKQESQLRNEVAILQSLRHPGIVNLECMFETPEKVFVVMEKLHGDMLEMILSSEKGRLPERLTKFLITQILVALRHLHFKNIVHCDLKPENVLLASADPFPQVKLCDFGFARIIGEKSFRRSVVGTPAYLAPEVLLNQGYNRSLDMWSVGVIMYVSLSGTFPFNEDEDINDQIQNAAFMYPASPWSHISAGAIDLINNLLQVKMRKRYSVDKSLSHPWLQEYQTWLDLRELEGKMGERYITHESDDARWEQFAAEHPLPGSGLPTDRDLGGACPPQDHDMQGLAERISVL
Chain of Testis-specific serine/threonine-protein kinase 3 (Homo sapiens) (Q96PN8 whole entry): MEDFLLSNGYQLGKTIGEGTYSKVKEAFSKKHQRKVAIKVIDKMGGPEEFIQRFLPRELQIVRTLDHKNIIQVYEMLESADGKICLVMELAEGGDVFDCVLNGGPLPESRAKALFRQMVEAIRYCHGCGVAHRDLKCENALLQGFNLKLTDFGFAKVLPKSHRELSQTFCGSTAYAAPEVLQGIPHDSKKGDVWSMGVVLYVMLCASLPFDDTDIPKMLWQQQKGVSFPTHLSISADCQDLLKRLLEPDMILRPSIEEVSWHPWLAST

With `CNCc1ccccc1-c1csc([C@H](C)Nc2nc(C)nc3cc(OC)c(OC)cc23)c1` [BAY-294] the residual activity [1] was 99%, the residual activity [2] was 96% and the inhibition (D(3) dopamine receptor) was 64.8%. For the same compound, the residual activity [3] was 100%, the residual activity [4] was 99% and the residual activity [5] was 100%. It also gave a residual activity [6] of 100%, a residual activity [7] of 98% and a residual activity [8] of 100%. For the same compound, the residual activity [9] was 100%, the Ki ([10]; read-out: Ki) was 95.2 nM and the Ki ([10]; read-out: pKi (converted)) was 91.2 nM. For the same compound, the residual activity [11] was 64%, the residual activity [12] was 100% and the residual activity [13] was 100%. The residual activity [14] was 100%, the residual activity [15] was 100% and the Ki ([16]; read-out: Ki) was 1670 nM. For the same compound, the Ki ([16]; read-out: pKi (converted)) was 1410 nM, the inhibition [17] was 18.2% and the IC50 [18] was > 20000 nM (not active). For the same compound, the residual activity [19] was 100%, the residual activity [20] was 71% and the residual activity [21] was 94%. The inhibition [22] was 71.8%, the residual activity [23] was 94% and the residual activity [24] was 100%. It also gave a residual activity [25] of 99%, a residual activity [26] of 95% and a residual activity [27] of 90%. It also gave a residual activity [28] of 100%, a residual activity [29] of 100% and a residual activity [30] of 100%. The residual activity [31] was 100% and the residual activity [32] was 90%.
For `CNCc1ccccc1-c1csc([C@@H](C)Nc2nc(C)nc3cc(OC)c(OC)cc23)c1` [BAY-293], the residual activity [1] was 100%, the residual activity [2] was 79% and the inhibition (D(3) dopamine receptor) was 56.8%. For the same compound, the residual activity [3] was 100%, the residual activity [4] was 100% and the residual activity [5] was 100%. For the same compound, the residual activity [6] was 100%, the residual activity [7] was 100% and the residual activity [8] was 75%. The residual activity [9] was 91%, the Ki ([10]; read-out: Ki) was 131 nM and the Ki ([10]; read-out: pKi (converted)) was 130 nM. It also gave a residual activity [11] of 50%, a residual activity [12] of 99% and a residual activity [13] of 100%. The residual activity [14] was 100%, the residual activity [15] was 100% and the Ki ([16]; read-out: Ki) was 522 nM. For the same compound, the Ki ([16]; read-out: pKi (converted)) was 479 nM, the inhibition [17] was 12.1% and the IC50 [18] was > 20000 nM (not active). The residual activity [19] was 100%, the residual activity [20] was 81% and the residual activity [21] was 91%. It also gave an inhibition [22] of 73.7%, a residual activity [23] of 94% and a residual activity [24] of 89%. For the same compound, the residual activity [25] was 70%, the residual activity [26] was 98% and the residual activity [27] was 72%. It also gave a residual activity [28] of 92%, a residual activity [29] of 99% and a residual activity [30] of 92%. It also gave a residual activity [31] of 99% and a residual activity [32] of 93%.
